Reference: patent US20240158412A1 (Faxian Therapeutics, LLC, priority 2021, published 2024)

Molecular target: USP7 (Homo sapiens, UniProt Q93009)
Assay: biochemical
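Further: fluorescence intensity readout of USP7 enzymatic activity, reaction incubated 90 min at room temperature.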

Sequence of USP7 (Q93009 whole entry): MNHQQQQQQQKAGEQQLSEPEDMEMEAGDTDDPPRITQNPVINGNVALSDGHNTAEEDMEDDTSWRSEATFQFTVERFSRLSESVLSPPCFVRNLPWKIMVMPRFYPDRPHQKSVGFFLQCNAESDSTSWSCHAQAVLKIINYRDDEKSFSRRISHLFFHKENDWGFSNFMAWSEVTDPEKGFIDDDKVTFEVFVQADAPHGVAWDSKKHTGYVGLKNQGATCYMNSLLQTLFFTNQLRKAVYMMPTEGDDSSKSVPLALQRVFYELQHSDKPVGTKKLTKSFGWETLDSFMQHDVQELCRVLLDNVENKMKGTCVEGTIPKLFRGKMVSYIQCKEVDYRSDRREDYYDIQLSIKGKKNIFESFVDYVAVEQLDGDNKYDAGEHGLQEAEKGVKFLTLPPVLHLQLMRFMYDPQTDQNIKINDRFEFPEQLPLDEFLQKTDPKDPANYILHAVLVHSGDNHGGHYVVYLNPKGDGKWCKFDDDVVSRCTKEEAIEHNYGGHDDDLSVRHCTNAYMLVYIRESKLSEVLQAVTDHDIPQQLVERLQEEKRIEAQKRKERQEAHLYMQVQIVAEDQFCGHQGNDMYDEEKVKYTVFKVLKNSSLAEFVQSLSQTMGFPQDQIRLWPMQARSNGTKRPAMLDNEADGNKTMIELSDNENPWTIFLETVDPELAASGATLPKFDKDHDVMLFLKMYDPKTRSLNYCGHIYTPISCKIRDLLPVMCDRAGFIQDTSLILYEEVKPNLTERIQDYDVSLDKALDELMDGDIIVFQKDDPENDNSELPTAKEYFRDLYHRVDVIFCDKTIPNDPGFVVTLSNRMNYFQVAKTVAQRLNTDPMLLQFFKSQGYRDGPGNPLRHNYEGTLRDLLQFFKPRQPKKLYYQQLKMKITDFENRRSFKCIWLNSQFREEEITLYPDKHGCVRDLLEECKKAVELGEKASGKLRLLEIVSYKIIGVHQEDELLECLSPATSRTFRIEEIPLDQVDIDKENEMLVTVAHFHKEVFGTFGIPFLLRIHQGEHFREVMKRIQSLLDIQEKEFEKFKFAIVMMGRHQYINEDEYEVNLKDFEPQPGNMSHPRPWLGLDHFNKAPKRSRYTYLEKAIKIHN
Experimental: Example A. Biochemical Assay of USP7 Inhibitor Potency (IC50)
Fluorescence intensity assay of USP7 activity in the presence USP7 inhibitors. Recombinant USP7 protein (catalogue number E-519) and the fluorescence substrate ubiquitin-rhodamine 110 (Rh110) (catalogue number U-555) were purchased from Boston Biochem (840 Memorial Drive, Cambridge, MA 02139). The reaction was carried out in buffer 20 mM HEPES, pH 7.3, 150 mM NaCl, 1 mM TCEP, 125 μg/mL BSA at room temperature in a black 384-well Microplate (Greiner, catalog number 781076).
Test compounds were dissolved in DMSO to make 50 mM stock solution. […] In wells of a black 384-well Microplate, 15 μl of 100 pM of USP7 enzyme was added to each well with pre-diluted compounds and incubated at room temperature for 30 minutes, followed by addition of 10 μl of ubiquitin-rhodamine 110 (Rh110) substrate to reach 160 nM final concentration. The reaction mixtures were incubated for additional 90 minutes at room temperature. The fluorescence signal of the digested substrate was measured on an EnVision microplate reader (PerkinElmer,), using excitation at 485 nm and emission at 535 nm. The IC50 values were calculated using XLfit software.

| SMILES | IC50 |
| --- | --- |
| CCn1c(N(C)C)cc(=O)n(Cc2cc3nccc(-c4cc(C#N)cc5c4N([C@@H]4CNC(C)(C)C4)CCC5)c3s2)c1=O [Example 126, (S)-8-(2-((4-(dimethylamino)-3-ethyl-2,6-dioxo-2,3-dihydropyrimidin-1(6H)-yl)methyl)thieno[3,2-b]pyridin-7-yl)-1-(5,5-dimethylpyrrolidin-3-yl)-1,2,3,4-tetrahydroquinoline-6-carbonitrile] | < 10 nM |
| O=c1cc(NC2CCC2)cnn1Cc1cc2nccc(-c3cc(Cl)cc4c3N(C3CNC3)CCC4)c2s1 [Example 35, 2-[[7-[1-(azetidin-3-yl)-6-chloro-3,4-dihydro-2H-quinolin-8-yl]thieno[3,2-b]pyridin-2-yl]methyl]-5-(cyclobutylamino)pyridazin-3-one] | 10 to 100 nM |
| CN1CCC(N2CCCc3cc(Cl)cc(-c4ccnc5cc(CN6C(=O)CCC6=O)sc45)c32)CC1 [Example 46, 1-[[7-[6-chloro-1-(1-methyl-4-piperidyl)-3,4-dihydro-2H-quinolin-8-yl]thieno[3,2-b]pyridin-2-yl]methyl]pyrrolidine-2,5-dione] | 10 to 100 nM |
| O=c1ccn(CC(F)(F)F)c(=O)n1Cc1cc2ncnc(-c3cc(Cl)cc4c3N([C@H]3CCNC3)CCC4)c2s1 [Example 91, (S)-3-((4-(6-chloro-1-(pyrrolidin-3-yl)-1,2,3,4-tetrahydroquinolin-8-yl)thieno[3,2-d]pyrimidin-6-yl)methyl)-1-(2,2,2-trifluoroethyl)pyrimidine-2,4(1H,3H)-dione] | < 10 nM |
| C[C@]1(CO)C[C@H](N2CCCc3cc(Cl)cc(-c4ccnc5c(F)c(CN6C(=O)CCC6=O)sc45)c32)CN1 [Example 210, 1-[[7-[6-chloro-1-[(3S,5R)-5-(hydroxymethyl)-5-methyl-pyrrolidin-3-yl]-3,4-dihydro-2H-quinolin-8-yl]-3-fluoro-thieno[3,2-b]pyridin-2-yl]methyl]pyrrolidine-2,5-dione] | < 10 nM |
| C[C@@H]1C[C@H](N2CCCc3cc(Cl)cc(-c4ccnc5cc(Cn6c(=O)ccn(CC(F)(F)F)c6=O)sc45)c32)CN1 (single isomer, unassigned) [Example 95b] | 10 to 100 nM |
| N#Cc1cc2c(c(-c3ccnc4cc(CN5C(=O)CCC5=O)sc34)c1)N([C@H]1CCNC1)CCC2 [Example 82, (S)-8-(2-((2,5-dioxopyrrolidin-1-yl)methyl)thieno[3,2-b]pyridin-7-yl)-1-(pyrrolidin-3-yl)-1,2,3,4-tetrahydroquinoline-6-carbonitrile] | < 10 nM |
| O=C1CNCC(=O)N1Cc1cc2nccc(-c3cc(Cl)cc4c3N(C3CNC3)CCC4)c2s1 [Example 28, 1-[[7-[1-(azetidin-3-yl)-6-chloro-3,4-dihydro-2H-quinolin-8-yl]thieno[3,2-b]pyridin-2-yl]methyl]piperazine-2,6-dione] | < 10 nM |
| O=C1CCC(=O)N1Cc1cc2nccc(-c3cc(Cl)cc4c3N([C@H]3CO[C@@H](CO)C3)CCO4)c2s1 (single isomer, unassigned) [Example 227a] | > 1000 nM |
| O=c1c2ccccc2cnn1Cc1cc2nccc(-c3cc(Cl)cc4c3N(C3CNC3)CCC4)c2s1 [Example 21, 2-[[7-[1-(azetidin-3-yl)-6-chloro-3,4-dihydro-2H-quinolin-8-yl]thieno[3,2-b]pyridin-2-yl]methyl]phthalazin-1-one] | 101 to 1000 nM |
| O=c1cc2n(c(=O)n1Cc1cc3nccc(-c4cc(Cl)cc5c4N([C@H]4CCNC4)CCC5)c3s1)CCC2 [Example 106, (S)-2-((7-(6-chloro-1-(pyrrolidin-3-yl)-1,2,3,4-tetrahydroquinolin-8-yl)thieno[3,2-b]pyridin-2-yl)methyl)-6,7-dihydropyrrolo[1,2-c]pyrimidine-1,3(2H,5H)-dione] | < 10 nM |
| C[C@]1(CO)C[C@H](N2CCOc3cc(C(F)(F)F)cc(-c4ccnc5cc(CN6C(=O)CCC6=O)sc45)c32)CN1 [Example 224, 1-((7-(4-((3S,5R)-5-(hydroxymethyl)-5-methylpyrrolidin-3-yl)-7-(trifluoromethyl)-3,4-dihydro-2H-benzo[b][1,4]oxazin-5-yl)thieno[3,2-b]pyridin-2-yl)methyl)pyrrolidine-2,5-dione] | < 10 nM |
| C[C@]1(CO)C[C@H](N2CCOc3cc(C#N)cc(-c4cc[n+]([O-])c5cc(Cn6ncc(C7(C(F)(F)F)CC7)cc6=O)sc45)c32)CN1 [Example 223, 7-(7-cyano-4-((3S,5R)-5-(hydroxymethyl)-5-methylpyrrolidin-3-yl)-3,4-dihydro-2H-benzo[b][1,4]oxazin-5-yl)-2-((6-oxo-4-(1-(trifluoromethyl)cyclopropyl)pyridazin-1(6H)-yl)methyl)thieno[3,2-b]pyridine 4-oxide] | 10 to 100 nM |
| CC(C)(C)c1cnn(Cc2cc3nccc(-c4cc(Cl)cc5c4N(C4CNC(CO)(CO)C4)CCO5)c3s2)c(=O)c1 (stereo in doubt) [Example 213a, (R)-2-((7-(4-(5,5-bis(hydroxymethyl)pyrrolidin-3-yl)-7-chloro-3,4-dihydro-2H-benzo[b][1,4]oxazin-5-yl)thieno[3,2-b]pyridin-2-yl)methyl)-5-(tert-butyl)pyridazin-3(2H)-one] | 10 to 100 nM |
| Cc1cc(-c2cc(Cl)cc3c2N([C@H]2CCNC2)CCC3)c2sc(CN3C(=O)CCC3=O)cc2n1 [Example 116, (S)-1-((7-(6-chloro-1-(pyrrolidin-3-yl)-1,2,3,4-tetrahydroquinolin-8-yl)-5-methylthieno[3,2-b]pyridin-2-yl)methyl)pyrrolidine-2,5-dione] | 101 to 1000 nM |
| O=C1CCC(=O)N1Cc1cc2nccc(-c3cc(Cl)cc4c3N([C@@H]3CCNC3)CC3CC43)c2s1 (single isomer, unassigned) [Example 113b] | 10 to 100 nM |
| CC1(C)C2C(=O)N(Cc3cc4nccc(-c5cc(C#N)cc6c5N([C@@H]5CN[C@@](C)(CO)C5)CCO6)c4s3)C(=O)C21 (stereo partly drawn) [Example 220, 5-(2-((6,6-dimethyl-2,4-dioxo-3-azabicyclo[3.1.0]hexan-3-yl)methyl)thieno[3,2-b]pyridin-7-yl)-4-((3S,5R)-5-(hydroxymethyl)-5-methylpyrrolidin-3-yl)-3,4-dihydro-2H-benzo[b][1,4]oxazine-7-carbonitrile] | < 10 nM |
| CC(C)(C)c1cnn(Cc2cc3nccc(-c4cc(C#N)cc5c4N([C@@H]4CN[C@@H](CO)C4)CCO5)c3s2)c(=O)c1 [Example 217, 5-(2-((4-(tert-butyl)-6-oxopyridazin-1(6H)-yl)methyl)thieno[3,2-b]pyridin-7-yl)-4-((3S,5R)-5-(hydroxymethyl)pyrrolidin-3-yl)-3,4-dihydro-2H-benzo[b][1,4]oxazine-7-carbonitrile] | < 10 nM |
| CC(C)(C)c1cnn(Cc2cc3nccc(-c4cc(C#N)cc5c4N([C@@H]4CN[C@@H](CO)C4)CCC5)c3s2)c(=O)c1 [Example 190, 8-[2-[(4-tert-butyl-6-oxo-pyridazin-1-yl)methyl]thieno[3,2-b]pyridin-7-yl]-1-[(3S,5R)-5-(hydroxymethyl)pyrrolidin-3-yl]-3,4-dihydro-2H-quinoline-6-carbonitrile] | < 10 nM |
| O=c1ccn(CCOC(F)F)c(=O)n1Cc1cc2nccc(-c3cc(Cl)cc4c3N([C@H]3CCNC3)CCC4)c2s1 [Example 61, (S)-3-((7-(6-chloro-1-(pyrrolidin-3-yl)-1,2,3,4-tetrahydroquinolin-8-yl)thieno[3,2-b]pyridin-2-yl)methyl)-1-(2-(difluoromethoxy)ethyl)pyrimidine-2,4(1H,3H)-dione] | < 10 nM |
| CCn1c(N(C)C)cc(=O)n(Cc2cc3nccc(-c4cc(C#N)cc5c4N([C@H]4CN[C@](C)(CO)C4)CCO5)c3s2)c1=O (stereo in doubt) [Example 219, 5-(2-((4-(dimethylamino)-3-ethyl-2,6-dioxo-2,3-dihydropyrimidin-1(6H)-yl)methyl)thieno[3,2-b]pyridin-7-yl)-4-((3R,5S)-5-(hydroxymethyl)-5-methylpyrrolidin-3-yl)-3,4-dihydro-2H-benzo[b][1,4]oxazine-7-carbonitrile] | < 10 nM |
| Cn1ccc(=O)n(Cc2cc3nccc(-c4cc(Cl)cc5c4N([C@H]4CCNC4)CCC5)c3s2)c1=O [Example 63, (S)-3-((7-(6-chloro-1-(pyrrolidin-3-yl)-1,2,3,4-tetrahydroquinolin-8-yl)thieno[3,2-b]pyridin-2-yl)methyl)-1-methylpyrimidine-2,4(1H,3H)-dione] | < 10 nM |
| N#Cc1cc(-c2ccnc3cc(CN4C(=O)CCC4=O)sc23)c2c(c1)[C@@H]1C[C@@H]1CN2[C@@H]1CNC2(CCC2)C1 [Example 168, (1aS,7bR)-4-(2-((2,5-dioxopyrrolidin-1-yl)methyl)thieno[3,2-b]pyridin-7-yl)-3-((S)-5-azaspiro[3.4]octan-7-yl)-1a,2,3,7b-tetrahydro-1H-cyclopropa[c]quinoline-6-carbonitrile] | < 10 nM |
| O=C1CCC(=O)N1Cc1cc2nccc(-c3cc(Cl)cc4c3C(N3CCNCC3)CCO4)c2s1 (single isomer, unassigned) [Example 52b] | < 10 nM |
| CN1CC(N2CCCc3cc(Cl)cc(-c4ccnc5cc(CN6C(=O)CCC6=O)sc45)c32)C1 [Example 2, 1-((7-(6-chloro-1-(1-methylazetidin-3-yl)-1,2,3,4-tetrahydroquinolin-8-yl)thieno[3,2-b]pyridin-2-yl)methyl)pyrrolidine-2,5-dione] | 10 to 100 nM |
| N#Cc1cc2c(c(-c3ccnc4cc(Cn5c(=O)ccn(CC(F)(F)F)c5=O)sc34)c1)N([C@H]1CCN(C3CCC3)C1)CCC2 [Example 86, (S)-1-(1-cyclobutylpyrrolidin-3-yl)-8-(2-((2,6-dioxo-3-(2,2,2-trifluoroethyl)-2,3-dihydropyrimidin-1(6H)-yl)methyl)thieno[3,2-b]pyridin-7-yl)-1,2,3,4-tetrahydroquinoline-6-carbonitrile] | 10 to 100 nM |
| Cc1ccc(=O)n(Cc2cc3nccc(-c4cc(Cl)cc5c4N(C4CNC4)CCC5)c3s2)n1 [Example 17, 2-[[7-[1-(azetidin-3-yl)-6-chloro-3,4-dihydro-2H-quinolin-8-yl]thieno[3,2-b]pyridin-2-yl]methyl]-6-methyl-pyridazin-3-one] | 10 to 100 nM |
| N[C@@H]1CCN(C2CCOc3cc(Cl)cc(-c4ccnc5cc(CN6C(=O)CCC6=O)sc45)c32)C1 (stereo in doubt) [Example 230a, 1-((7-((S)-4-((R)-3-aminopyrrolidin-1-yl)-7-chlorochroman-5-yl)thieno[3,2-b]pyridin-2-yl)methyl)pyrrolidine-2,5-dione] | 10 to 100 nM |
